Test results taken from US6365616B1, “Methimazole derivatives and tautomeric cyclic thiones to treat autoimmune diseases” (Sentron Medical, Inc., priority 1998, dated 2002).
Read-outs that look alike come from different tables or passages of the source.

Key:
[1] = test system: swine class I promoter (PD1); assay: Luciferase assay, FRTL-5 cells stably transfected with class I promoter-luciferase chimeras; format: cell-based; conditions: for inhibition at 10 µM / inhibition at 25 µM / inhibition at 100 µM / inhibition at 1000 µM: Sus scrofa
Source text: The swine PD1 5′-flanking sequence-CAT chimeras (−1100, −203, and −127), as well as two mutants with the CRE site with −107 to −100 bp deleted (−203ΔCRE and −127ΔCRE) were used to create luciferase reporter gene constructs. The inserts were released by restriction enzyme digestion, purified from agarose gel using QIAEX (QIAGEN, Chatsworth, Calif.) and ligated in the NheI-HindIII site of the PGL-2 basic vector (PROMEGA, Madison, Wis.) using a DNA ligation kit from TAKARA biomedicals (TAKARA SHUZO Co). JM109 bacterial competent cells (PROMEGA, Madison, Wis.) were transformed with the ligation reaction and plated in agar plates for 12 h at 37° C. The colonies were picked and screened with minipreps using QIAprep spin plasmid kit (QIAGEN, Chatsworth, Calif.) and restriction enzyme digestion. The plasmids were then purified by CsCl gradient centrifugation.
The PD1-PGL-2 basic constructs and the Class II-PGL-2 basic constructs were stably transfected in the FRTL-5 cells using a Lipofectamine (GIBCO, Life Technologies, Inc.) method. Near confluent cells in 6H medium were cotransfected with 20 μg of plasmid DNA and 2 μg of a pcDNA3neo or a pPUR selection vector (CLONTECH, Palo Alto, Calif.). After 24-48 hours, 400 μg/ml of G418 (GIBCO, Life Technologies, Inc.) or 10 μM of puromycin (SIGMA) were added to the medium. After 3 weeks the antibiotic-resistant colonies were cloned by limiting dilution and screened to determine their interferon sensitivity. At least 5 cell lines of each construct were isolated, each of whose activity was increased by adding 100 U/ml γ interferon to the medium of the cells. The following data (Tables 10-13) were obtained with one clone of each of the class I or class II-luciferase chimera, but were representative of at least three other clones of each.
Luciferase activity was measured using the Luciferase assay system (PROMEGA, Madison, Wis.). Briefly, treated or untreated cells from a 100 mm culture dish were washed with PBS, scraped and collected in microfuge tubes. The pellet was dissolved in 100 μl 1× reporter lysis buffer and incubated at room temperature for 15 minutes. Cells were frozen in dry ice plus ethanol and thawed in water at room temperature. After vortexing for 10 sec, tubes were centrifuged at 12,000×g for 5 min. Twenty μl of the supernatant were mixed with 100 μl of Luciferase assay reagent and immediately placed in a luminometer. Light was measured for a period of 10 sec after a 2 sec delay.
Treatment of cells, maintained either in the presence of TSH or its absence, with 100 U/ml interferon, increased class I and class II promoter activity (Table 10). In this experiment FRTL-5 cells were grown to 80% confluency in 6H medium with TSH then treated with 100 U/ml γ-interferon, 5 mM MMI or both together. Luciferase activity was measured after 40 hours as described. Several points are notable. First, interferon increases both class I and class II promoter activity in the stable transfectants. Second, MMI inhibits both interferon-increased class I and interferon-increased class II promoter activity.

MHC class I RNA = assay: Northern analysis of MHC class I RNA levels in FRTL-5 cells; format: cell-based, rat; conditions: for % inhibition of class I RNA expression (γ-interferon-treated) / % inhibition of class I RNA expression (basal): 100 μM; for inhibition at 1000 µM / inhibition at 5000 µM: Rattus norvegicus; for inhibition at 5000 µM: 5 mM
[2] = test system: Y box protein (TSEP-1) RNA; assay: Northern analysis of Y box protein (TSEP-1) RNA levels in FRTL-5 cells; format: cell-based, rat; conditions: γ-IFN alone, 100 Units/ml, 40 hours
Source text: Whereas γ-IFN decreases Y box protein RNA levels in FRTL-5 cells, MMI can reverse this action (FIG. 16). […] The rat TSEP-1 probe was the clone 31 insert, residues 5 to 1395 of the rat TSEP-1 nucleotide sequence reported (Ohmori, M., et al., ibid (1996)); rat β-actin was kindly provided by Dr. B. Paterson (NCI, Bethesda, Md.). Radiolabeling of all probes, hybridization (0.5-1.0×10^6cpm/ml), and washing were as described (Isozaki, O., et al., ibid (1989); Saji, M., et al., ibid (1992); Ohmori, M., et al., ibid (1996)).
The ability of the compounds to reverse the γ-IFN-induced decrease in TSEP-1 RNA levels is once again 10>11>7 or 8>2>MMI>3. This mimics data in all other assays.

[3] = FRTL-5, 10 μM, 100 U/ml γ-interferon, 6H medium, 40 hours, read-out: % inhibition of IFN-increased p(−203)LUC class I promoter activity
[4] = FRTL-5, 25 μM, 6H medium, 40 hours, read-out: % inhibition of basal p(−203)LUC class I promoter activity
[5] = FRTL-5, 100 μM, 6H medium, 40 hours, read-out: % inhibition of basal p(−203)LUC class I promoter activity
[6] = FRTL-5, 100 μM, 100 U/ml γ-interferon, 6H medium, 40 hours, read-out: % inhibition of IFN-increased p(−203)LUC class I promoter activity
[7] = FRTL-5, 1.0 mM, 6H medium, 40 hours, read-out: % inhibition of basal p(−203)LUC class I promoter activity
[8] = FRTL-5, 1.0 mM, 100 U/ml γ-interferon, 6H medium, 40 hours, read-out: % inhibition of IFN-increased p(−203)LUC class I promoter activity
[9] = 100 U/ml γ-interferon, 6H medium (TSH), 40 hours
[10] = FRTL-5, 1 mM, 100 U/ml γ-interferon, 6H medium (TSH), 40 hours, read-out: % inhibition of class I RNA expression (γ-interferon-treated)
[11] = FRTL-5, 1 mM, basal, 5H medium, 40 hours, read-out: % inhibition of class I RNA expression (basal)
[12] = FRTL-5, 100 U/ml γ-interferon, 6H medium (TSH), 40 hours, read-out: % inhibition of class I RNA expression (γ-interferon-treated)
[13] = FRTL-5, read-out: % inhibition of IFN-increased p(−203)LUC class I promoter activity
[14] = FRTL-5, read-out: % inhibition of basal p(−203)LUC class I promoter activity

Which inhibition at 10 µM [1, 3] does the source give for `Cc1cnc(S)n1C` [Compound 9, 5-Methylmethimazole] here?
The inhibition at 10 µM was 0%.

And the inhibition at 25 µM [1, 4]?
Its inhibition at 25 µM is 0%.

And the inhibition at 100 µM [1, 5]?
The inhibition at 100 µM was 0%.

And the inhibition at 100 µM [1, 6]?
The inhibition at 100 µM was 0%.

What about the inhibition at 1000 µM [1, 7] of the same molecule?
The inhibition at 1000 µM was 10 ± 10%.

And the inhibition at 1000 µM [1, 8]?
The inhibition at 1000 µM was 15 ± 11%.

What about the “% inhibition of class I RNA expression (γ-interferon-treated)” value (shortened to “% inhibition … (γ-interferon-treated)”) (MHC class I RNA; [9]) of the same molecule?
Its value is “None”.

And the “% inhibition of class I RNA expression (basal)” value (shortened to “% inhibition … (basal)”) (MHC class I RNA; basal, 5H medium, 40 hours)?
Its value is “None”.

And the inhibition at 1000 µM (MHC class I RNA; [10])?
The inhibition at 1000 µM was 9 ± 5%.

What about the inhibition at 1000 µM (MHC class I RNA; [11]) of the same molecule?
Its inhibition at 1000 µM is 15 ± 14%.

And the inhibition at 5000 µM (MHC class I RNA; [12])?
The inhibition at 5000 µM was 24 ± 6%.

And the inhibition at 5000 µM (MHC class I RNA; FRTL-5, basal, 5H medium, 40 hours, read-out: % inhibition of class I RNA expression (basal))?
Its inhibition at 5000 µM is 30 ± 5%.

Which results are given for `Cc1ccc2[nH]c(S)nc2c1` [Compound 6, 2-Mercapto-5-methylbenzimidazole]?
inhibition at 25 µM [1, 4]: 0%; inhibition at 100 µM [1, 5]: 0%; inhibition at 1000 µM [1, 7]: 0%; inhibition at 1000 µM [1, 8]: 19 ± 10%; % inhibition of class I RNA expression (γ-interferon-treated) (MHC class I RNA; [9]): None; % inhibition of class I RNA expression (basal) (MHC class I RNA; basal, 5H medium, 40 hours): None; inhibition at 1000 µM (MHC class I RNA; [10]): 22 ± 16%; inhibition at 1000 µM (MHC class I RNA; [11]): 23 ± 15%; inhibition at 5000 µM (MHC class I RNA; [12]): 23 ± 11%

With `O=[N+]([O-])c1ccc2[nH]c(S)nc2c1` [Compound 5, 2-Mercapto-5-nitrobenzimidazole] as the molecule, how does the inhibition at 10 µM [1, 3] read?
Its inhibition at 10 µM is 0%.

What about the inhibition at 25 µM [1, 4] of the same molecule?
Its inhibition at 25 µM is 0%.

What about the inhibition at 100 µM [1, 5] of the same molecule?
The inhibition at 100 µM was 0%.

What about the inhibition at 100 µM [1, 6] of the same molecule?
Its inhibition at 100 µM is 0%.

And the inhibition at 1000 µM [1, 7]?
Its inhibition at 1000 µM is 0%.

And the inhibition at 1000 µM [1, 8]?
Its inhibition at 1000 µM is 9 ± 7%.

And the “% inhibition … (γ-interferon-treated)” value (MHC class I RNA; [9])?
Its value is “None”.

What about the “% inhibition … (basal)” value (MHC class I RNA; basal, 5H medium, 40 hours) of the same molecule?
Its value is “None”.

And the inhibition at 1000 µM (MHC class I RNA; [10])?
The inhibition at 1000 µM was 19 ± 7%.

And the inhibition at 1000 µM (MHC class I RNA; [11])?
Its inhibition at 1000 µM is 32 ± 11%.

For `Sc1nc2ccccc2[nH]1` [Compound 4, 2-Mercaptobenzimidazole], which inhibition at 10 µM [1, 13] is on record?
Its inhibition at 10 µM is 0%.

What about the inhibition at 100 µM [1, 13] of the same molecule?
The inhibition at 100 µM was 0%.

What about the inhibition at 1000 µM [1, 13] of the same molecule?
The inhibition at 1000 µM was 39 ± 6%.

What about the inhibition at 25 µM [1, 14] of the same molecule?
The inhibition at 25 µM was 0%.

What about the inhibition at 100 µM [1, 14] of the same molecule?
Its inhibition at 100 µM is 0%.

And the inhibition at 1000 µM [1, 14]?
Its inhibition at 1000 µM is 50 ± 5%.

And the “% inhibition … (γ-interferon-treated)” value (MHC class I RNA; [9])?
The value was “None”.

And the “% inhibition … (basal)” value (MHC class I RNA; basal, 5H medium, 40 hours)?
The value was “None”.

What about the inhibition at 1000 µM (MHC class I RNA; FRTL-5, 40 h, read-out: % inhibition of class I RNA expression (basal)) of the same molecule?
Its inhibition at 1000 µM is 34 ± 13%.

And the inhibition at 1000 µM (MHC class I RNA; FRTL-5, 40 h, read-out: % inhibition of class I RNA expression (γ-interferon-treated))?
Its inhibition at 1000 µM is 37 ± 10%.

B1: γ-IFN: rat recombinant γ-interferon, 100 U/ml, used to increase MHC class I and class II expression in FRTL-5 cells (protein, UniProt P01581 23-156, looked up)
Interferon gamma: QGTLIESLESLKNYFNSSSMDAMEGKSLLLDIWRNWQKDGNTKILESQIISFYLRLFEVLKDNQAISNNISVIESHLITNFFSNSKAKKDAFMSIAKFEVNNPQIQHKAVNELIRVIHQLSPESSLRKRKRSRC
What does the source list for B1?
Luciferase activity +γ-IFN ([1]; Vector-LUC Control, 100 U/ml γ-interferon, 40 hours): 102 ± 6 % Control; Luciferase activity +γ-IFN ([1]; p(−127) class I-LUC, 100 U/ml γ-interferon, 40 hours): 180 ± 19 % Control; Luciferase activity +γ-IFN ([1]; p(−127ΔCRE) class I-LUC, 100 U/ml γ-interferon, 40 hours): 92 ± 10 % Control; Luciferase activity +γ-IFN ([1]; p(−203) class I-LUC, 100 U/ml γ-interferon, 40 hours): 495 ± 30 % Control; Luciferase activity +γ-IFN ([1]; p(−203ΔCRE) class I-LUC, 100 U/ml γ-interferon, 40 hours): 139 ± 16 % Control; Y box protein (TSEP-1) RNA level +γIFN, % Control [2]: 45 ± 6%
